In the assay the target is T1, glucocorticoid receptor (GR) (Rattus norvegicus, UniProt P06536).
T1 construct: cytosol preparations that consist of the thymus homogenates of rats; from tissue; host or cells: rat thymus homogenate, cytosol
T1 sequence (P06536 1-795): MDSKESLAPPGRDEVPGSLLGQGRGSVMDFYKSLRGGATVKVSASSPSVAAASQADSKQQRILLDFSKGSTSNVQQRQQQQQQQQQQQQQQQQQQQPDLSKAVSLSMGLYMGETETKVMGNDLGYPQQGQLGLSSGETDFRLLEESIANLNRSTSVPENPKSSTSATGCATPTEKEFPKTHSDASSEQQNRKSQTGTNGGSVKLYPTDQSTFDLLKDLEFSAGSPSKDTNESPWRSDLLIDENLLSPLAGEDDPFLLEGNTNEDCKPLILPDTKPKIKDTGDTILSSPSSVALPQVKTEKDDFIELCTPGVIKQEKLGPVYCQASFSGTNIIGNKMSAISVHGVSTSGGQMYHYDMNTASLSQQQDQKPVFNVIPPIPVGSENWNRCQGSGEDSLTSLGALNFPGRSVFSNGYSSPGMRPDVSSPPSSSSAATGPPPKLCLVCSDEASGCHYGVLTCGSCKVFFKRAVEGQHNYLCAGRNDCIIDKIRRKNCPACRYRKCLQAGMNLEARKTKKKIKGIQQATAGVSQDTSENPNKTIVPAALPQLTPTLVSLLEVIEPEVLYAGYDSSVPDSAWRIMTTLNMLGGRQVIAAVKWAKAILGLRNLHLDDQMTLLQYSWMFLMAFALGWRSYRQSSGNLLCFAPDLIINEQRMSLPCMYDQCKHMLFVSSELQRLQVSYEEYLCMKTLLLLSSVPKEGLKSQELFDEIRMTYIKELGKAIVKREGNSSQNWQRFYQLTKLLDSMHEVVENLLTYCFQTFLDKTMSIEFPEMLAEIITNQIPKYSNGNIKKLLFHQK
The assay can be described thus: glucocorticoid receptor (GR)-binding test, cytosol of rat thymus homogenates, [3H]-dexamethasone.

[1] abbreviates: 10 nM [3H]-dexamethasone, rat thymus cytosol, read-out: IC50 (GR-binding test).

Like-named read-outs stand apart in the source and are kept apart here.

As a reminder, the IC50 is the concentration that gives 50% inhibition.

The compound `CC(C)(CC(O)(C(=O)Nc1ccc2c(c1)COC2=O)C(F)(F)F)c1cc(F)ccc1O` (centres unmarked) [i, 5-[4-(5-Fluoro-2-hydroxyphenyl)-2-hydroxy-4-methyl-2-trifluoromethyl-valeroylamino]-phthalide] returned a 50% inhibitory concentration (IC50) of 2.8 nM.

For `CC(C)(CC(O)(CNc1ccc2c(c1)COC2=O)C(F)(F)F)c1cc(F)ccc1O` (centres unmarked) [ii, 5-[4-(5-fluoro-2-hydroxyphenyl)-2-hydroxy-4-methyl-2-trifluoromethyl-pentylamino]-phthalide], the IC50 under setting [1] was found to be 2.3 nM.

Regarding `COc1ccc(F)cc1C(C)(C)CC(O)(C(=O)Nc1ccc2c(=O)onc(C)c2c1)C(F)(F)F` (centres unmarked) [iii, 6-[4-(5-fluoro-2-methoxyphenyl)-2-hydroxy-4-methyl-2-trifluoromethyl-valeroylamino]-4-methyl-2,3-benzoxazin-1-one], under setting [1], the IC50 worked out at 4.6 nM.

Consider `COc1cc(Br)ccc1C(C)(C)CC(O)(C(=O)Nc1ccc2c(=O)onc(C)c2c1)C(F)(F)F` (centres unmarked) [iv, 6-[4-(4-bromo-2-methoxyphenyl)-2-hydroxy-4-methyl-2-trifluoromethyl-valeroylamino]-4-methyl-2,3-benzoxazin-1-one], for which, under setting [1], the IC50 was determined as 4.9 nM.

`Cc1noc(=O)c2ccc(NC(=O)C(O)(CC(C)(C)c3cc(F)ccc3O)C(F)(F)F)cc12` (centres unmarked) [v, 6-[4-(5-fluoro-2-hydroxyphenyl)-2-hydroxy-4-methyl-2-trifluoromethyl-valeroylamino]-4-methyl-2,3-benzoxazin-1-one] displayed an IC50 of 2.6 nM.

For the origin of these results see patent publication US6323199A, “Nonsteroidal anti-inflammatory agents” (Schering Aktiengesellschaft, priority 1998, dated 2001).
